Test results from US10227345B2, “Compounds and methods for inhibiting fascin” (Cornell University, priority 2014, dated 2019).

Each molecule was assayed against T1, human fascin 1 (Homo sapiens, UniProt Q16658) (assay: Fascin inhibition (actin bundling) assay, image-based). Details: in the presence of 50 μm of the compound relative to bundle activity when the compound was not present; read-out: Inhibition (percentage reduction of bundle activity).
T1 construct: GST (N, cleaved yes); made in house; host or cells: Escherichia coli BL21/DE3 (pGEX4T-fascin 1 plasmid)
Format: biochemical
Experimental: Recombinant human fascin 1 was expressed as a GST fusion protein in BL21 Escherichia coli. One liter of 2YT medium with ampicillin was inoculated overnight with 3 mL of BL21/DE3 culture transformed with pGEX4T-fascin 1 plasmid and grown at 37° C. until attenuance at 600 nm (D600) reached about 0.8. The culture was then transferred to 18° C. and induced by the addition of 0.1 mM isopropyl β-d-thiogalactoside (IPTG) for 12 h. Bacteria were harvested by centrifugation at 5,000 r.p.m. for 10 min. The pellets were suspended in 30 mL of PBS supplemented with 0.2 mM PMSF, 1 mM DTT, 1% (v/v) Triton X-100 and 1 mM EDTA. After sonication, the suspension was centrifuged at 15,000 r.p.m. for 30 min to remove the cell debris. The supernatant was then incubated for 2 h with 4 mL of glutathione beads (Sigma) at 4° C. After extensive washing with PBS, the beads were resuspended in 10 mL of thrombin cleavage buffer (20 mM Tris-HCl pH 8.0, 150 mM NaCl, 2 mM CaCl2, 1 mM DTT). Fascin was released from the beads by incubation overnight with 40-100 U of thrombin at 4° C. After centrifugation, 0.2 mM PMSF was added to the supernatant to inactivate the remnant thrombin activity. The fascin protein was further concentrated with a Centricon® (Boca Raton, Fla.) filter to about 50 mg/mL.
Representative compounds described herein were tested for fascin inhibition activity. Purified fascin protein (15 μL of 0.5 μM) in buffer (100 mM KCl, 20 mM Tris/HCl, pH 7.5, 2 mM MgCl2) was added into each well of a clear 384-well flat-bottom plate (Corning) using Thermo Multidrop Combi (Fisher). Compound solutions (5 mM stock, 180 nL) were pin transferred from stock 384-well plates into the 384-well assay plates and incubated for 30 min. Then 15 μL of 0.5 μM polymerized actin (in 100 mM KCl, 20 mM Tris/HCl, pH 7.5, 2 mM MgCl2, 1 mM DTT, 1 mM ATP) (Cytoskeleton Inc.) was added, resulting in 30 μM final concentration for chemical compounds. […] Mixed solution (25 μL) was then transferred to one well in a black 384-well plate coated with poly-D-lysine, and stained actin bundles or F-actin would stick onto the poly-D-lysine plates. After the plates were thoroughly washed with 1×PBS for 3 times, the plate was imaged using an ImageXpress Micro High Content Screening System (Molecular devices). The images were processed and analyzed using MetaMorph software. The raw image data for each well was background-corrected by subtraction of the median intensities across all wells on the plate. The background-corrected data was used to compute the bundle length for each well. The negative control wells were employed for quality control: multiple DMSO-only control wells (16 wells/plate) were present on each assay plate.

| SMILES | inhibition at 50 µM |
| --- | --- |
| N#Cc1ccc2c(c1)c(NC(=O)c1cccnn1)nn2Cc1ccc(C(F)(F)F)nc1 [N-(5-cyano-1-((6-(trifluoromethyl)pyridin-3-yl)methyl)-1H-indazol-3-yl)pyridazine-3-carboxamide] | < 10% |
| O=C(Nc1nn(Cc2ccc(F)cc2)c2ccccc12)c1cccnn1 [Compound 76, N-(1-(4-fluorobenzyl)-1H-indazol-3-yl)pyridazine-3-carboxamide] | < 10% |
| Cc1nocc1C(=O)Nc1nn(Cc2ccc(C(F)(F)F)cc2)c2cc(C(F)(F)F)ccc12 [Compound 108] | < 10% |
| Cc1ncsc1C(=O)Nc1nn(Cc2ccc(F)cc2)c2ccccc12 [Compound 75, N-(1-(4-fluorobenzyl)-1H-indazol-3-yl)-4-methylthiazole-5-carboxamide] | < 10% |
| O=C(Nc1n[nH]c2ccccc12)c1ccoc1 [Compound 62, N-(1H-indazol-3-yl)furan-3 carboxamide] | < 10% |
| Cc1occc1C(=O)Nc1nn(Cc2ccc(C(F)(F)F)cc2)c2ccc(C(F)(F)F)cc12 [Compound 125, 2-methyl-N-(5-(trifluoromethyl)-1-(4-(trifluoromethyl)benzyl)-1H-indazol-3-yl)furan-3-carboxamide] | < 10% |
| CC(C)C(=O)Nc1nn(Cc2ccc(C(F)(F)F)cc2)c2cncc(Cl)c12 [Compound 152, N-(4-chloro-1-(4-(trifluoromethyl)benzyl)-1H-pyrazolo[3,4-c]pyridin-3-yl)isobutyramide] | 100% |
| Cc1ccc(Cn2nc(N)c3ccccc32)cc1 [Compound 77, 1-(4-methylbenzyl)-1H-indazol-3-amine] | < 10% |
| O=C(Nc1nn(Cc2ccc(F)cc2)c2ccccc12)c1ccno1 [Compound 73, N-(1-(4-fluorobenzyl)-1H-indazol-3-yl)isoxazole-5-carboxamide] | 50% |
| Nc1nn(Cc2ccc(F)cc2)c2ccccc12 [Compound 70, 1-(4-fluorobenzyl)-1H-indazol-3-amine] | < 10% |
| O=C(Nc1nn(Cc2ccccc2)c2ccccc12)c1ccoc1 [Compound 58, N-(1-benzyl-1H-indazol-3-yl)furan-3-carboxamide] | < 10% |
| Cc1nocc1C(=O)Nc1nn(Cc2ccc(C(F)(F)F)cc2)c2cccc(Cl)c12 [Compound 118, N-(4-chloro-1-(4-(trifluoromethyl)benzyl)-1H-indazol-3-yl)-3-methylisoxazole-4-carboxamide] | < 10% |
| Cc1occc1C(=O)Nc1nn(Cc2ccc(C(F)(F)F)cc2)c2c(C(F)(F)F)cccc12 [Compound 114, 2-methyl-N-(7-(trifluoromethyl)-1-(4-(trifluoromethyl)benzyl)-1H-indazol-3-yl)furan-3-carboxamide] | < 10% |
| N#Cc1ccc(Cn2nc(N)c3ccccc32)cc1 [Compound 84, 4-((3-amino-1H-indazol-1-yl)methyl)benzonitrile] | < 10% |
| Nc1nn(Cc2ccc(C(F)(F)F)cc2)c2ccc(C(F)(F)F)cc12 [Compound 122, 5-(trifluoromethyl)-1-(4-(trifluoromethyl)benzyl)-1H-indazol-3-amine] | < 10% |
| Nc1nn(Cc2ccc(C(F)(F)F)cc2)c2c(C(F)(F)F)cccc12 [Compound 111, 7-(trifluoromethyl)-1-(4-(trifluoromethyl)benzyl)-1H-indazol-3-amine] | < 10% |
| Nc1nn(Cc2ccc(CO)cc2)c2ccccc12 [Compound 103, (4-((3-amino-1H-indazol-1-yl)methyl)phenyl)methanol] | < 10% |
| CCC(=O)Nc1nn(Cc2ccc(C(F)(F)F)cc2)c2cncc(Cl)c12 [Compound 151, N-(4-chloro-1-(4-(trifluoromethyl)benzyl)-1H-pyrazolo[3,4-c]pyridin-3-yl)propionamide] | 80% |

Next, values leading:

| inhibition at 50 µM | SMILES |
| --- | --- |
| < 10% | O=C(Nc1nn(Cc2ccc(C(F)(F)F)cc2)c2ccccc12)c1sccc1F [Compound 37, 3-fluoro-N-(1-(4-(trifluoromethyl)benzyl)-1H-indazol-3-yl)thiophene-2-carboxamide] |
| 10% | FC(F)(F)c1ccc(Cn2nc(-c3ccoc3)c3ccccc32)cc1 [Compound 147, 3-(furan-3-yl)-1-(4-(trifluoromethyl)benzyl)-1H-indazole] |
| < 10% | Cc1cc(C(=O)Nc2nn(Cc3ccc(C(F)(F)F)cc3)c3ccccc23)oc1C [Compound 1, 4,5-dimethyl-N-(1-(4-(trifluoromethyl)benzyl)-1H-indazol-3-yl)furan-2-carboxamide] |
| < 10% | Cc1ccsc1C(=O)Nc1nn(Cc2ccc(C(F)(F)F)cc2)c2ccccc12 [Compound 23, 3-methyl-N-(1-(4-(trifluoromethyl)benzyl)-1H-indazol-3-yl)thiophene-2-carboxamide] |
| < 10% | O=C(Nc1nn(Cc2ccc(C(F)(F)F)cc2)c2ccccc12)c1cccc(Cl)n1 [Compound 8, 6-chloro-N-(1-(4-(trifluoromethyl)benzyl)-1H-indazol-3-yl)picolinamide] |
| < 10% | O=C(Nc1nn(Cc2ccc(F)cc2)c2ccccc12)c1ccoc1 [Compound 71, N-(1-(4-fluorobenzyl)-1H-indazol-3-yl)furan-3-carboxamide] |
| < 10% | O=C(Nc1nn(Cc2ccc(C(F)(F)F)cc2)c2ccccc12)c1cc(F)ccc1F [Compound 21, 2,5-difluoro-N-(1-(4-trifluoromethyl)benzyl)-1H-(indazol-3-yl)benzamide] |
| 50% | O=C(Nc1nn(Cc2ccc(C(F)(F)F)cc2)c2ccccc12)c1ccsn1 [Compound 39, N-(1-(4-(trifluoromethyl)benzyl)-1H-indazol-3-yl)isothiazole-3-carboxamide] |
| < 10% | O=C(Nc1nn(Cc2ccc(C(F)(F)F)cc2)c2ccccc12)c1ccc(F)c(F)c1 [Compound 19, 3,4-difluoro-N-(1-(4-(trifluoromethyl)benzyl)-1H-indazol-3-yl)benzamide] |
| 10% | FC(F)(F)c1ccc(Cn2nc(Br)c3ccccc32)cc1 [Compound 143, 3-Bromo-1-(4-(trifluoromethyl)benzyl)-1H-indazole] |
| < 10% | O=C(Nc1nn(Cc2ccc(C(F)(F)F)cc2)c2ccccc12)c1ccccc1C(F)(F)F [Compound 50, 2-(trifluoromethyl)-N-(1-(4-(trifluoromethyl)benzyl)-1H-indazol-3-yl)benzamide] |
| < 10% | Cc1ccc(C(=O)Nc2nn(Cc3ccc(C(F)(F)F)cc3)c3ccccc23)cc1 [Compound 16] |
| 10% | Cc1ccc(-c2nn(Cc3ccc(C(F)(F)F)cc3)c3ccccc23)o1 [Compound 146, 3-(5-methylfuran-2-yl)-1-(4-(trifluoromethyl)benzyl)-1H-indazole] |
| < 10% | O=C(Nc1nn(Cc2ccc(C(F)(F)F)cc2)c2c(C(F)(F)F)cccc12)c1ccoc1 [Compound 112, N-(7-(trifluoromethyl)-1-(4-(trifluoromethyl)benzyl)-1H-indazol-3-yl)furan-3-carboxamide] |
| < 10% | O=C(Nc1nn(Cc2ccc(C(F)(F)F)nc2)c2ccccc12)c1ccoc1 [Compound 92, N-(1-((6-(trifluoromethyl)pyridine-3-yl)methyl)-1H-indazol-3-yl)furan-3-carboxamide] |
| < 10% | Nc1nn(Cc2ccc(C(F)(F)F)cc2)c2ccccc12 [Compound 59, 1-(4-(trifluoromethyl)benzyl)-1H-indazol-3-amine] |
| < 10% | O=C(Nc1nn(Cc2ccc(C(F)(F)F)cc2)c2ccccc12)c1csc(Cl)n1 [Compound 24, 2-chloro-N-(1-(4-(trifluoromethyl)benzyl)-1H-indazol-3-yl)thiazole-4-carboxamide] |
| < 10% | O=C(Nc1nn(Cc2ccc(C(F)(F)F)cc2)c2ccccc12)c1cccnc1 [Compound 54, N-(1-(4-(trifluoromethyl)benzyl)-1H-indazol-3-yl)nicotinamide] |
| < 10% | O=C(Nc1nn(Cc2ccc(C(F)(F)F)cc2)c2ccccc12)c1cnc[nH]1 [Compound 26, N-(1-(4-(trifluoromethyl)benzyl)-1H-indazol-3-yl)-1H-imidazole-5-carboxamide] |
